Earlier results as cited in patent publication US20170332633A1, “DOUBLE SALT IONIC LIQUIDS OF HERBICIDES” (THE BOARD OF TRUSTEES OF THE UNIVERSITY OF ALABAMA, priority 2014, published 2017).

Test system: rat

SMILES	rat LD50
COc1c(Cl)ccc(Cl)c1C(=O)O [Dicamba, 3,6-dichloro-2-methoxy benzoic acid]	1039 mg/kg
O=C(O)COc1ccc(Cl)cc1Cl [Example 2.4-D, 2,4-dichlorophenoxyacetic acid]	639 to 764 mg/kg
